Patent US8455688B2, “HDAC inhibitors” (Lixte Biotechnology, Inc., priority 2007, dated 2013)
≈ marks a conversion by molar mass, not a printed value. Like-named read-outs stand apart in the source and are kept apart here.

Columns and labels:
A. fumigatus = experiment: Broth dilution antifungal susceptibility testing, A. fumigatus; assay type: cell-based, Aspergillus fumigatus; settings: Aspergillus fumigatus, 80% inhibition, read-out: minimum inhibitory concentration (MIC)
How it was run: (§1)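 Clinical isolates tested by NCCLS M27-A2 (yeasts) and M38-A (moulds) broth dilution in RPMI-1640 with glutamine, without bicarbonate, at 35° C for 24 and 48 hours. Compound dissolved in DMSO, tested at 0.125-64 μg/ml. MIC read at the first 24-hour interval with growth in the drug-free control.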

R. arrhizus = experiment: Broth dilution antifungal susceptibility testing, R. arrhizus; assay type: cell-based, Rhizopus oryzae; settings: Rhizopus arrhizus, 80% inhibition, read-out: minimum inhibitory concentration (MIC)
How it was run: as §1

F. solani = experiment: Broth dilution antifungal susceptibility testing, F. solani; assay type: cell-based; settings: Fusarium solani, 80% inhibition, read-out: minimum inhibitory concentration (MIC)
How it was run: as §1

C. neoformans = experiment: Broth dilution antifungal susceptibility testing, C. neoformans; assay type: cell-based; settings: Cryptococcus neoformans, 50% reduction in turbidity, read-out: minimum inhibitory concentration (MIC)
How it was run: as §1

T. rubrum = experiment: Broth dilution antifungal susceptibility testing, T. rubrum; assay type: cell-based, Trichophyton rubrum; settings: Trichophyton rubrum, 80% inhibition, read-out: minimum inhibitory concentration (MIC)
How it was run: as §1

CP Control = experiment: Broth dilution antifungal susceptibility testing, CP Control; assay type: cell-based; settings: read-out: minimum inhibitory concentration (MIC)
How it was run: as §1

U87 GBM xenografts = experiment: Inhibition of U87 GBM xenografts; settings: in vivo
GBM xenograft = GBM xenograft tumor volume in SCID mice; assay type: in vivo; settings: tumor cells implanted subcutaneously, 0, 7, 14, 21 and 28 days
cell line U-87 = experiment: Activity against the cell line U-87; assay type: cell-based, human; settings: potency on an equimolar basis
S. apiospermum = experiment: Broth dilution antifungal susceptibility testing, S. apiospermum; assay type: cell-based, Pseudallescheria boydii; settings: Scedosporium apiospermum, 80% inhibition, read-out: minimum inhibitory concentration (MIC)
How it was run: as §1

C. glabrata = experiment: Broth dilution antifungal susceptibility testing, C. glabrata; assay type: cell-based, Candida glabrata; settings: Nakaseomyces glabratus, 50% reduction in turbidity, read-out: minimum inhibitory concentration (MIC)
How it was run: as §1

C. albicans = experiment: Broth dilution antifungal susceptibility testing, C. albicans; assay type: cell-based, Candida albicans; settings: Candida albicans, 50% reduction in turbidity, read-out: minimum inhibitory concentration (MIC)
How it was run: as §1

CN(C)c1ccc(NC(=O)CCCCCNC(=O)c2ccccc2S)cc1 [Compound 206, 2-Mercapto-N-[5-(4-dimethylamino-3-yl-carbamoyl)pentyl]benzamide]
MIC (A. fumigatus; 24 h, isolate 05-388, 24 hours): 16 µg/mL (≈ 41.5 µM)
MIC (A. fumigatus; 24 h, isolate 06-4126, 24 hours): 8 µg/mL (≈ 20.8 µM)
MIC (A. fumigatus; 24 h, isolate 07-2039, 24 hours): 8 µg/mL (≈ 20.8 µM)
MIC (A. fumigatus; 48 h, isolate 05-388, 48 hours): > 64 µg/mL
MIC (A. fumigatus; 48 h, isolate 06-4126, 48 hours): 64 µg/mL (≈ 166 µM)
MIC (A. fumigatus; 48 h, isolate 07-2039, 48 hours): > 64 µg/mL
MIC (R. arrhizus; 24 h, isolate 07-1870, 24 hours): 32 µg/mL (≈ 83 µM)
MIC (R. arrhizus; 24 h, isolate 07-2044, 24 hours): 32 µg/mL (≈ 83 µM)
MIC (R. arrhizus; 24 h, isolate 07-2078, 24 hours): > 64 µg/mL
MIC (R. arrhizus; 48 h, isolate 07-1870, 48 hours): 64 µg/mL (≈ 166 µM)
MIC (R. arrhizus; 48 h, isolate 07-2044, 48 hours): 64 µg/mL (≈ 166 µM)
MIC (R. arrhizus; 48 h, isolate 07-2078, 48 hours): > 64 µg/mL
MIC (F. solani; 24 h, isolate 07-1399, 24 hours): > 64 µg/mL
MIC (F. solani; 24 h, isolate 07-1755, 24 hours): > 64 µg/mL
MIC (F. solani; 24 h, isolate 07-1867, 24 hours): 64 µg/mL (≈ 166 µM)
MIC (F. solani; 48 h, isolate 07-1399, 48 hours): > 64 µg/mL
MIC (F. solani; 48 h, isolate 07-1755, 48 hours): > 64 µg/mL
MIC (F. solani; 48 h, isolate 07-1867, 48 hours): > 64 µg/mL
MIC (C. neoformans; 24 h, isolate 07-2665, 24 hours): 16 µg/mL (≈ 41.5 µM)
MIC (C. neoformans; 24 h, isolate 07-2737, 24 hours): 16 µg/mL (≈ 41.5 µM)
MIC (C. neoformans; 24 h, isolate 07-2829, 24 hours): 64 µg/mL (≈ 166 µM)
MIC (C. neoformans; 48 h, isolate 07-2665, 48 hours): 32 µg/mL (≈ 83 µM)
MIC (C. neoformans; 48 h, isolate 07-2737, 48 hours): 32 µg/mL (≈ 83 µM)
MIC (C. neoformans; 48 h, isolate 07-2829, 48 hours): 64 µg/mL (≈ 166 µM)
MIC (T. rubrum; 24 h, isolate 07-1743, 24 hours): 0.25 µg/mL (≈ 0.648 µM)
MIC (T. rubrum; 24 h, isolate 07-2055, 24 hours): 0.25 µg/mL (≈ 0.648 µM)
MIC (T. rubrum; 48 h, isolate 07-1743, 48 hours): 0.25 µg/mL (≈ 0.648 µM)
MIC (T. rubrum; 48 h, isolate 07-2055, 48 hours): 0.25 µg/mL (≈ 0.648 µM)
MIC (CP Control; 24 hours): 8 µg/mL (≈ 20.8 µM)
MIC (CP Control; 48 hours): 64 µg/mL (≈ 166 µM)
inhibition of U87 GBM xenografts compared to control (U87 GBM xenografts): significant inhibition
inhibition of GBM xenograft tumor volume (GBM xenograft): inhibited the growth of GBM xenograft tumor volume
activity against the cell line U-87 (cell line U-87): most potent on an equimolar basis
MIC (S. apiospermum; 24 h, isolate 07-1333, 24 hours): 1 µg/mL (≈ 2.59 µM)
MIC (S. apiospermum; 24 h, isolate 07-1502, 24 hours): 8 µg/mL (≈ 20.8 µM)
MIC (S. apiospermum; 24 h, isolate 07-1601, 24 hours): 2 µg/mL (≈ 5.19 µM)
MIC (S. apiospermum; 48 h, isolate 07-1333, 48 hours): 2 µg/mL (≈ 5.19 µM)
MIC (S. apiospermum; 48 h, isolate 07-1502, 48 hours): 16 µg/mL (≈ 41.5 µM)
MIC (S. apiospermum; 48 h, isolate 07-1601, 48 hours): 2 µg/mL (≈ 5.19 µM)
MIC (C. glabrata; 24 h, isolate 07-2964, 24 hours): 32 µg/mL (≈ 83 µM)
MIC (C. glabrata; 24 h, isolate 07-2965, 24 hours): 32 µg/mL (≈ 83 µM)
MIC (C. glabrata; 24 h, isolate 07-3013, 24 hours): 32 µg/mL (≈ 83 µM)
MIC (C. glabrata; 48 h, isolate 07-2964, 48 hours): > 64 µg/mL
MIC (C. glabrata; 48 h, isolate 07-2965, 48 hours): > 64 µg/mL
MIC (C. glabrata; 48 h, isolate 07-3013, 48 hours): > 64 µg/mL
MIC (C. albicans; 24 h, isolate 07-3006, 24 hours): 64 µg/mL (≈ 166 µM)
MIC (C. albicans; 24 h, isolate 07-3011, 24 hours): 64 µg/mL (≈ 166 µM)
MIC (C. albicans; 24 h, isolate 07-3012, 24 hours): > 64 µg/mL
MIC (C. albicans; 48 h, isolate 07-3006, 48 hours): > 64 µg/mL
MIC (C. albicans; 48 h, isolate 07-3011, 48 hours): > 64 µg/mL
MIC (C. albicans; 48 h, isolate 07-3012, 48 hours): > 64 µg/mL
